{
  "source": "patent US12084472B2",
  "about": "(Ardelyx, Inc., priority 2015, dated 2024)",
  "data": [
    {"biological_target": "T1, human TGR5 (Homo sapiens, UniProt Q8TDU6)", "T1 construct": "expressed in transfected cells; host or cells: HEK293", "T1 sequence (Q8TDU6 1-330)": "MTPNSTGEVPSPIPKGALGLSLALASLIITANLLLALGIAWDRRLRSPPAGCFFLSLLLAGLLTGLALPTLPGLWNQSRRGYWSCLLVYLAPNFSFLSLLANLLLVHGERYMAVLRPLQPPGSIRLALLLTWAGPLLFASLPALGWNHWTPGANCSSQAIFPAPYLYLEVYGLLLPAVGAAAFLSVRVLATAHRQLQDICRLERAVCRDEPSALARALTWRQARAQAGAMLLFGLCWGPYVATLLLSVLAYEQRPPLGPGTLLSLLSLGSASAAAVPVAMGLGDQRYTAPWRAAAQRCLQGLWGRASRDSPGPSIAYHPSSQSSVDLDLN", "experiment": "Cell-based TGR5 assay (cAMP generation, HTRF)", "details": "HEK293 cells stably transfected with human TGR5; cAMP by HTRF; 30 minutes at 37° C.; read-out: pEC50 Human TGR5 (converted)", "outline": "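Read-out was HTRF detection of cAMP, converted to concentration via a standard curve and fitted (3-parameter logistic) for pEC50 and maximal response. Agonist stimulation used HEK293 cells stably transfected with human TGR5, incubated 30 min at 37° C in IBMX-containing buffer at 0.05 nM to 10 μM compound.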", "units": {"EC50": "nM"}, "values": [
      {"smiles": "O=C(CCCSc1ccc(Cl)c(COC2(c3cnccc3-c3ccccc3OC3CC3)CC2)c1)N(C[C@@H](O)[C@H](O)[C@@H](O)[C@@H](O)CO)[C@H]1CC[C@@H](O)CC1", "note": "[Compound I-688, 4-{[4-chloro-3-({1-[4-(2-cyclopropoxyphenyl)pyridin-3-yl]cyclopropoxy}methyl)phenyl]sulfanyl}-N-[(2R,3S,4S,5S)-2,3,4,5,6-pentahydroxyhexyl]-N-[(1s,4s)-4-hydroxycyclohexyl]butanamide]", "EC50": "126 to 1000"},
      {"smiles": "CC(CCCC(=O)N(CCO)C[C@H](O)[C@@H](O)[C@H](O)[C@H](O)CO)c1ccc(Cl)c(COC2(c3cnccc3-c3ccccc3OC3CC3)CC2)c1", "note": "(stereo partly drawn) [Compound I-374, 5-[4-chloro-3-({1-[4-(2-cyclopropoxyphenyl)pyridin-3-yl]cyclopropoxy}methyl)phenyl]-N-(2-hydroxyethyl)-N-[(2S,3R,4R,5R)-2,3,4,5,6-pentahydroxyhexyl]hexanamide]", "EC50": "< 100"},
      {"smiles": "CSc1ccccc1-c1ccncc1C1(OCc2cc(Cl)ccc2Cl)CC1", "note": "[Compound I-739, 3-(1-((2,5-dichlorobenzyl)oxy)cyclopropyl)-4-(2-(methylthio)phenyl)pyridine]", "EC50": "126 to 1000"},
      {"smiles": "CN(C[C@H](O)[C@@H](O)[C@H](O)[C@H](O)CO)C(=O)CC1(CSc2ccc(Cl)c(COC3(c4cnccc4-c4ccccc4OC4CC4)CC3)c2)CC1", "note": "[Compound I-679, 2-[1-({[4-chloro-3-({1-[4-(2-cyclopropoxyphenyl)pyridin-3-yl]cyclopropoxy}methyl)phenyl]sulfanyl}methyl)cyclopropyl]-N-methyl-N-[(2S,3R,4R,5R)-2,3,4,5,6-pentahydroxyhexyl]acetamide]", "EC50": "< 100"},
      {"smiles": "CN(C[C@H](O)[C@@H](O)[C@H](O)[C@H](O)CO)C(=O)CCCCc1cc(Cl)c(CNC2(c3cnccc3-c3ccccc3OC3CC3)CC2)cc1Cl", "note": "[Compound I-137, 5-{2,5-dichloro-4-[({1-[4-(2-cyclopropoxyphenyl)pyridin-3-yl]cyclopropyl}amino)methyl]phenyl}-N-methyl-N-[(2S,3R,4R,5R)-2,3,4,5,6-pentahydroxyhexyl]pentanamide]", "EC50": "< 100"},
      {"smiles": "CC(=O)NCCCCN(CCCSc1ccc(Cl)c(COC2(c3cnccc3-c3ccccc3OC3CC3)CC2)c1)C(=O)[C@@H](O)[C@@H](O)[C@H](O)[C@@H](O)CO", "note": "[Compound I-579, (2S,3S,4R,5S)-N-(3-{[4-chloro-3-({1-[4-(2-cyclopropoxyphenyl)pyridin-3-yl]cyclopropoxy}methyl)phenyl]sulfanyl}propyl)-N-(4-acetamidobutyl)-2,3,4,5,6-pentahydroxyhexanamide]", "EC50": "< 100"},
      {"smiles": "O=C(NCCCC(CO)c1ccc(Cl)c(CNC2(c3cnccc3-c3ccccc3OC3CC3)CC2)c1)[C@@H](O)[C@@H](O)[C@H](O)[C@@H](O)CO", "note": "(stereo partly drawn) [Compound I-380, (2S,3S,4R,5S)-N-(4-[4-chloro-3-[([1-[4-(2-cyclopropoxyphenyl)pyridin-3-yl]cyclopropyl]amino)methyl]phenyl]-5-hydroxypentyl)-2,3,4,5,6-pentahydroxyhexanamide]", "EC50": "126 to 1000"},
      {"smiles": "COCCC(=O)N(CCCCc1cc(Cl)c(COC2(c3cnccc3-c3ccccc3OC3CC3)CC2)cc1Cl)C[C@H](O)[C@@H](O)[C@H](O)[C@H](O)CO", "note": "[Compound I-75, N-(4-(2,5-dichloro-4-((1-(4-(2-cyclopropoxyphenyl)pyridin-3-yl)cyclopropoxy)methyl)phenyl)butyl)-3-methoxy-N-((2S,3R,4R,5R)-2,3,4,5,6-pentahydroxyhexyl)propanamide]", "EC50": "< 100"},
      {"smiles": "CC(=O)N(CCCCCSc1ccc(Cl)c(COC2(c3cnccc3-c3ccccc3OC3CC3)CC2)c1)C[C@H](O)[C@@H](O)[C@H](O)[C@H](O)CO", "note": "[Compound I-695, N-(5-{[4-chloro-3-({1-[4-(2-cyclopropoxyphenyl)pyridin-3-yl]cyclopropoxy}methyl)phenyl]sulfanyl}pentyl)-N-[(2S,3R,4R,5R)-2,3,4,5,6-pentahydroxyhexyl]acetamide]", "EC50": "< 100"}
    ]}
  ]
}
